Results taken from the supplement of paper PMC10307832.

Key:
Test in all cases: relative viability (nuclei count vs DMSO), 5 days (fraction); higher = more cells survive
[1] = compound: CC1=C(C(=O)N2C=CSC2=N1)CCN3CCC(=C(C4=CC=CC=C4)C5=CC=C(C=C5)F)CC3 + Cc1cc(Nc2cc(N3CCN(C)CC3)nc(Sc3ccc(NC(=O)C4CC4)cc3)n2)n[nH]1 [Tozasertib] (partner 0.1 µM)
In short: (§1)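 A single step with final 0.05% Triton X-100, 1% formaldehyde and 1 ug/ml Hoechst fixed the cells and stained nuclei 5 days after treatment. Lung cancer cell lines in 1536-well plates had been treated by pin tool the day after seeding with one drug alone or a fixed anchor-drug dose plus five library-drug doses (not always all listed) in √10 steps, and nuclei were counted on 4× images. Relative viability is the ratio of nuclei in treated wells to nuclei in vehicle wells, taken as the median of duplicate plates.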

[2] = compound: CC1=C(C(=O)N2C=CSC2=N1)CCN3CCC(=C(C4=CC=CC=C4)C5=CC=C(C=C5)F)CC3 + CS(=O)(=O)CCNCc1ccc(-c2ccc3ncnc(Nc4ccc(OCc5cccc(F)c5)c(Cl)c4)c3c2)o1 [Lapatinib] (partner 2 µM)
In short: as §1

[3] = compound: CC1=C(C(=O)N2C=CSC2=N1)CCN3CCC(=C(C4=CC=CC=C4)C5=CC=C(C=C5)F)CC3 + Nc1ncn([C@H]2C[C@H](O)[C@@H](CO)O2)c(=O)n1 [Decitabine] (partner 2 µM)
In short: as §1

[4] = compound: CC1=C(C(=O)N2C=CSC2=N1)CCN3CCC(=C(C4=CC=CC=C4)C5=CC=C(C=C5)F)CC3 + C[C@@H](Oc1cc(-c2cnn(C3CCNCC3)c2)cnc1N)c1c(Cl)ccc(F)c1Cl [Crizotinib] (partner 1 µM)
In short: as §1

Row | Cell Line | relative viability ([1]; first compound 0.08 µM) | relative viability ([1]; first compound 0.253 µM) | relative viability ([1]; first compound 0.8 µM) | relative viability ([1]; first compound 2.53 µM) | relative viability ([1]; first compound 8 µM) | relative viability ([2]; first compound 0.08 µM) | relative viability ([2]; first compound 0.253 µM) | relative viability ([2]; first compound 0.8 µM) | relative viability ([2]; first compound 2.53 µM) | relative viability ([2]; first compound 8 µM) | relative viability ([3]; first compound 0.08 µM) | relative viability ([3]; first compound 0.253 µM) | relative viability ([3]; first compound 0.8 µM) | relative viability ([3]; first compound 2.53 µM) | relative viability ([3]; first compound 8 µM) | relative viability ([4]; first compound 0.08 µM) | relative viability ([4]; first compound 0.253 µM) | relative viability ([4]; first compound 0.8 µM) | relative viability ([4]; first compound 2.53 µM) | relative viability ([4]; first compound 8 µM)
1 | PC-14 | 0.489 | 0.675 | 0.603 | 0.681 | 0.481 | 0.296 | 0.335 | 0.301 | 0.352 | 0.295 | 0.205 | 0.241 | 0.201 | 0.237 | 0.176 | 0.919 | 0.907 | 0.875 | 1.13 | 0.716
2 | RERF-LC-KJ | 0.432 | 0.462 | 0.518 | 0.426 | 0.452 | 0.873 | 0.753 | 0.921 | 0.907 | 0.666 | 0.715 | 0.746 | 0.647 | 0.62 | 0.572 | 0.789 | 0.851 | 0.775 | 0.835 | 0.795
3 | SK-LU-1 | 0.307 | 0.286 | 0.288 | 0.283 | 0.295 | 0.675 | 0.918 | 1.05 | 1.07 | 0.62 | 0.593 | 0.555 | 0.709 | 0.615 | 0.535 | 1.03 | 0.849 | 0.801 | 0.979 | 0.698
4 | SK-MES-1 | 0.922 | 0.971 | 0.862 | 1.08 | 0.601 | 0.453 | 0.537 | 0.478 | 0.437 | 0.481 | 0.572 | 0.391 | 0.375 | 0.461 | 0.353 | 1.11 | 0.969 | 0.975 | 1.1 | 0.916
5 | SW 1573 | – | 0.211 | 0.157 | 0.203 | 0.21 | 1.26 | 1.2 | 1.05 | 1.27 | 1.06 | 0.453 | 0.524 | 0.505 | 0.633 | 0.447 | 0.74 | 0.919 | 0.819 | 0.714 | 0.726
6 | UMC-11 | 0.208 | 0.225 | 0.194 | 0.212 | 0.202 | 0.999 | 0.745 | 0.86 | 1.21 | 0.821 | 0.591 | 0.714 | 0.58 | 0.633 | 0.53 | 0.636 | 0.597 | 0.619 | 0.48 | 0.839
